Data published in patent US20050239756A1, “Methods of treating various vitamin D metabolism conditions with 1alpha-hydroxyvitamin D2” (Bone Care International, Inc., priority 2004, published 2005).
Where “and” joins values, the source holds several entries; their conditions need not be identical. Equal entries are not always repeated. Blank lines part the entries; values can stand above or below the compound they belong to.

Experiments:
PTH levels = settings: Malluche et al., Nephrol. Dial. Transplant., 2004; cited from earlier work
[1] = tested on: subjects with chronic kidney disease with elevated blood PTH; assay: 24-week double-blinded placebo-controlled study of oral doxercalciferol in secondary hyperparathyroidism with mild to moderate chronic kidney disease (Example 2); assay type: in vivo, human; settings: for Mean (±SE) plasma iPTH: baseline 219.1±22.3 pg/mL
Source text: 1α-(OH)D2 (doxercalciferol) was used as a treatment for hyperparathyroidism associated with chronic kidney disease was confirmed in a study involving 55 adults, ages 18-85 years, with mild to moderate chronic kidney disease. The subjects had plasma intact parathyroid hormone (iPTH) levels above 85 pg/mL and completed an eight-week baseline period and then 24 weeks of therapy with either orally administered doxercalciferol or placebo. The initial dose of test drug was 2 capsules daily (totaling 1.0 μg for subjects randomized to doxercalciferol treatment), with increases in steps of one capsule per day permitted after four weeks. The maximum dosage was limited to 10 capsules per day (5.0 μg/day of doxercalciferol). Subjects were monitored at regular intervals for plasma iPTH, serum calcium and phosphorus, 24-hour and fasting urinary calcium, bone-specific serum markers, plasma total 1α,25-(OH)2D, and routine blood chemistries and hematologies. Glomerular filtration rate (GFR) was measured prior to beginning the treatment and at study termination. No physical or biochemical differences were detectable between the two treatment groups prior to starting treatment. […] On enrollment, each subject was assigned, at random, in double-blinded fashion, to one of two treatment groups. Both treatment groups completed an 8-week Baseline Period (Weeks −8 to 0) and then underwent therapy with either orally administered doxercalciferol or placebo for a 24-week Treatment Period (Weeks 1 to 24). Irrespective of treatment group assignment, each subject discontinued any 1α,25-dihydroxivitamin D3 (1α,25(OH)2D3) therapy for the duration of the study. Throughout the Baseline Period and the subsequent Treatment Period, subjects were monitored at regular intervals for plasma iPTH, serum calcium, serum phosphorus, and 24-hour and fasting urinary calcium, phosphorus and creatinine. Routine blood chemistries and hematologies, bone-specific serum markers, and plasma total 1α,25(OH)2D were also monitored at selected intervals. Glomerular filtration rate (GFR) was measured prior to beginning treatment and at termination. Subjects qualified for inclusion in the Baseline Period if they were aged 18 to 85 years, had mild to moderate CR1 with serum creatinine between 1.8 to 5.0 mgldL (for men) or 1.6 to 4.0 mg/dL (for women), and had elevated plasma iPTH values (>85 pg/mL). Subjects receiving ongoing treatment with estrogen were required to maintain the same estrogen dosing regimen throughout the study. Subjects who began dialysis treatment or underwent renal transplantation were required to prematurely terminate participation. […] Patients were also excluded who had hypercalcemia, hyperthyroidism, sarcoidosis, malignancy requiring chemotherapy, hormonal therapy and/or radiation treatment, chronic gastrointestinal disease (i.e., malabsorption, surgery affecting absorption, and chronic ulcerative colitis), hepatic impairment, or any other condition which may have put the patient at undue risk. […] The two studies were conducted under double-blind conditions in each geographical region. Assignments of subjects to the two treatment groups were made randomly, by geographical region, in order of enrollment. The randomization was accomplished in subgroups of size 10, 5 subjects assigned to each of the two treatment groups. The randomization was performed by an independent statistician using the Statistical Analysis System (SAS). 1α-hydroxyvitamin D2 (available as doxercalciferol from Bone Care International) was formulated for oral administration as soft elastic gelatin capsules in units of 0.5 mcg/capsule. […] The initial dose of test drug (doxercalciferol or placebo) was 2 capsules (totaling a 1.0 μg dose for subjects receiving doxercalciferol) every day before breakfast. This dosage was increased as necessary at monthly intervals, to suppress plasma iPTH levels by at least 30% from baseline. […]

[2] = tested on: subjects with low serum 1,25-dihydroxyvitamin D; assay: 24-week oral doxercalciferol therapy in subjects with low serum 1,25-dihydroxyvitamin D (Example 4); assay type: in vivo, human
Procedure: (§1) 1α-(OH)D2 (doxercalciferol) is used as a treatment for subjects with low serum 1,25-dihydroxyvitamin D in a study involving 50 adults, ages 18-85 years. The subjects have serum 1,25-dihydroxyvitamin D levels below 20 pg/dL and complete an eight-week baseline period and then 24 weeks of therapy with orally administered doxercalciferol. The initial dose of 1α-(OH)D2 is 2 capsules daily (totaling 1.0 μg), with increases in steps of one capsule per day permitted after four weeks. The maximum dosage is limited to 10 capsules per day (5.0 μg/day of doxercalciferol). Subjects are monitored at regular intervals for plasma iPTH, serum calcium and phosphorus, 24-hour and fasting urinary calcium, bone-specific serum markers, plasma total 1α,25-(OH)2D, and routine blood chemistries and hematologies.

[3] = tested on: postmenopausal osteoporotic outpatients; assay: 104-week placebo-controlled study of oral 1α-(OH)D2 in postmenopausal osteoporotic outpatients (Example 1); assay type: in vivo, human
Source text: 1α-(OH)D2 was used to treat osteoporosis was confirmed in a study involving 60 postmenopausal osteoporotic outpatients. […] Exclusion criteria encompassed significant medical disorders and recent use of medications known to affect bone or calcium metabolism. On admission to the study, each subject was assigned at random to one of two treatment groups; one group received up to a 104-week course of therapy with 1α-(OH)D2; the other received only placebo therapy. All subjects received instruction on selecting a daily diet containing 700-900 mg of calcium and were advised to adhere to this diet over the course of the study. Compliance to the diet was verified at regular intervals by 24-hour food records and by interviews with each subject. During the treatment period, subjects from one group orally self-administered 1α-(OH)D2 at an initial dosage of 1.0 μg/day for one week, and increased the dosage to 2.0, 3.0, 4.0 μg/day in each of the following weeks, to a maximum dosage of 5.0 μg/day. The dosage for any given subject was increased in this way until the rate of urinary calcium excretion was elevated to approximately 275-300 mg/24 hours, at which point the subject held the dosage constant at the highest level attained. Subjects from the second group self-administered a matching placebo medication every day, titrating the apparent dosage upwards in the same manner as subjects being treated with 1α-(OH)D2. Spinal and femoral neck BMD were measured in all subjects by DEXA at the beginning of the study, and at six-month intervals thereafter. Intestinal calcium absorption was estimated in all subjects by a single isotope technique at the beginning of the study, and at 12-month intervals. Serum levels of vitamin D metabolites were determined by radioreceptor binding assays at baseline and at six-month intervals. Serum osteocalcin, serum PTH and urine hydroxyproline also were determined at baseline and at six-month intervals. Other blood and urine chemistries were monitored at regular intervals during the treatment period. These chemistries included serum calcium, serum ionized calcium, urine calcium, blood urea nitrogen, serum creatinine and creatinine clearance. Kidney-ureter-bladder (KUB) x-rays were obtained at baseline and at 12-month intervals thereafter.

[4] = tested on: subjects with low serum calcium; assay: 24-week oral doxercalciferol therapy in subjects with low serum calcium (Example 3); assay type: in vivo, human
Procedure: as §1, with “calcium” for “1,25-dihydroxyvitamin D”, “8.6 mg/dL” for “20 pg/dL”

[5] = Treatment Period, active treatment
[6] = after the 24 week treatment period

SMILES: C=C1/C(=C\C=C2/CCC[C@]3(C)[C@@H]([C@H](C)CCCC(C)(C)O)CC[C@@H]23)C[C@@H](O)C[C@@H]1O [calcitriol, 1,25-dihydroxyvitamin D3]
Effect of treatment on PTH levels (PTH levels): over suppression of PTH levels

Episodes of hypercalciuria (24-hour urine calcium >200 mg or fasting urine Ca/Cr ratio above 0.25) ([1]; Treatment Period): No episodes
Episodes of hyperphosphatemia (serum phosphorus >5.0 mg/dL) [1, 5]: 15 episodes
Subjects with hyperphosphatemia (serum phosphorus >5.0 mg/dL) [1, 5]: 10 subjects
Mean (±SE) serum phosphorus ([1]; Week 24, baseline 4.02±0.15 mg/dL): 4.27 ± 0.13 mg/dL
Mean (±SE) serum calcium ([1]; Week 24, baseline 8.74±0.12 mg/dL): 9.14 ± 0.11 mg/dL
Duration of hypercalcemia episode ([1]; episode with onset in Week 4): 5 weeks
Maximum serum calcium recorded during hypercalcemia episode ([1]; episode with onset in Week 4, one subject): 10.9 mg/dL
Duration of hypercalcemia episode ([1]; episode with onset in Week 16): 8 weeks
Maximum serum calcium recorded during hypercalcemia episode ([1]; episode with onset in Week 16, one subject): 11.0 mg/dL
Episodes of hypercalcemia (corrected serum calcium >10.7 mg/dL) ([1]; in one subject, onsets Week 4 and Week 16): Two
Serum calcium in the excepted subject during treatment ([1]; one subject with pre-treatment serum calcium as high as 10.7 mg/dL): 11.0 mg/dL
Average serum phosphorous levels [2, 6]: 2.4 to 5 mg/dL
Serum bone-specific markers alkaline phosphatase, N- and C-telopeptides, and osteocalcin [2, 6]: average normal levels
Serum 1α,25-(OH)2D2 ([3]; during treatment): dramatic rise
Mild hypercalcemia (10.2-10.4 mg/dL), subjects affected ([3]; first year): four
Moderate hypercalcemia (10.4-10.8 mg/dL), subjects affected ([3]; over the course of the study, prescribed dosages 5.0 μg/day): two
Hypercalciuria observed occasionally, subjects affected ([3]; over the two-year study): 17 subjects
Marked hypercalcemia (>10.8 mg/dL), subjects affected ([3]; prescribed dosage 5.0 μg/day, in association with an intercurrent illness): one
Mild hypercalcemia (10.2-10.4 mg/dL), subjects affected ([3]; second year): two
Average serum phosphorous levels [4, 6]: 2.4 to 5 mg/dL
Serum bone-specific markers alkaline phosphatase, N- and C-telopeptides, and osteocalcin [4, 6]: average normal levels
SMILES: C=C1/C(=C\C=C2/CCC[C@]3(C)[C@@H]([C@H](C)/C=C/[C@H](C)C(C)C)CC[C@@H]23)C[C@@H](O)C[C@@H]1O [1α-(OH)D2, 1α-hydroxyvitamin D2]
Renal function and rates of adverse events vs placebo ([1]; 24 weeks): No differences between treatment groups
Subjects achieving plasma iPTH suppression of ≧30% from baseline (percentage) ([1]; 27 subjects in the active group, mean of Weeks 20 and 24, placebo 7.1%): 74%
Mean serum osteocalcin, upward trend from baseline ([1]; Week 4): ~10%
Mean (±SE) plasma iPTH ([1]; Week 4): 165 ± 15 pg/mL
Mean reduction of plasma iPTH from baseline ([1]; Week 8): 26.3%
Mean serum osteocalcin, decline from baseline ([1]; Week 24): about 20%
Mean (±SE) plasma iPTH ([1]; Week 24, p<0.001 vs. baseline): 118 ± 17 pg/mL
Mean reduction (suppression) of plasma iPTH from baseline ([1]; Week 24, p<0.001): 45.6%
Mean alkaline phosphatase ([1]; Weeks 16 and 24, p<0.05): reduced significantly from baseline
Mean serum total 1,25-dihydroxyvitamin D levels ([1]; all treatment weeks, did not differ significantly between groups): increased significantly from baseline
Mean reduction in serum bone-specific alkaline phosphatase (BSAP) from baseline ([1]; by Week 16): 19.7±3.7%
Mean reduction in serum bone-specific alkaline phosphatase (BSAP) from baseline ([1]; by Week 24): 27.9±4.6%
Rise in mean serum 1,25-dihydroxyvitamin D from baseline levels ([1]; during treatment, no change in placebo group): ~50%
iPTH increase in an individual subject ([1]; end of treatment, one subject): 3.9%
iPTH reduction in individual subjects not reaching ≧30% suppression ([1]; end of treatment, single subjects, listed as doxercalciferol): 24.0% and 24.2% and 19.6%
Subjects achieving plasma iPTH suppression of ≧30% from baseline (number) ([1]; of 27 subjects in the active group, mean of Weeks 20 and 24): 20 subjects
iPTH increase in a subject at discontinuation ([1]; one subject, discontinued in Week 5): 22.8%
Plasma iPTH suppression from baseline in a subject at discontinuation ([1]; one subject, discontinued in Week 8): 27.9%
Plasma iPTH suppression in a subject at discontinuation ([1]; one subject, discontinued in Week 17): 44.4%
Serum C- and N-telopeptides and bone-specific alkaline phosphate ([1]; relative to baseline and placebo treatment, p<0.01): decreased
Serum 1,25-dihydroxyvitamin D levels between doses ([2]; between doses of 1α-(OH)D2): within the patients normal historical physiological range
Increase in intestinal absorption of orally administered Ca relative to placebo control ([3]; after 52 weeks, P<0.001): 40%
Increase in intestinal absorption of orally administered Ca relative to placebo control ([3]; after 104 weeks, P<0.5): 29%
Decrease in serum levels of PTH relative to placebo therapy ([3]; at 1-4 weeks (so in the source)): 25%
Increase in mean serum total 1α,25-(OH)2D3 relative to placebo therapy ([3]; at 24 months, P<0.01): 49%
Decrease in serum levels of PTH relative to placebo therapy ([3]; at 52 weeks): 17%
Increase in mean serum total 1α,25-(OH)2D3 relative to placebo therapy ([3]; at six months, P<0.05): 21%
Mean urine calcium during initial titration period ([3]; dosage titrated 1.0 to 5.0 μg/day): increased during the initial titration period in a dose-response fashion
Bone mineral density (BMD) in the L2-L4 vertebrae ([3]; two-year study, decreased with placebo, difference P<0.05 after 24 months): progressively increased
Serum 1,25-dihydroxyvitamin D levels between doses ([4]; between doses of 1α-(OH)D2): within the patients normal historical physiological range
